Converted amounts (≈) assume the structure as drawn. Marks after values point to notes of the source that are not given here.
What was measured:
physchem [1] = type: physicochemical; conditions: thermodynamic from solid
Experimental: Excess amounts of DRF-(5S,20S)-1042 were added to different media including water, fasting state simulated intestinal fluid (FaSIF), fed state simulated intestinal fluid (FeSIF), aqueous sodium carbonate solution (0.1M, pH12.6), aqueous sodium hydroxide solution (0.1M, pH 12.73) and the suspensions were shaken at room temperature for 24 hours at 200 rpm in a mechanical shaker water bath till no further drug went into solution when checked visually. The suspensions were filtered through a 0.22 μm membrane filter (supplied by Millipore) and the content of DRF-(5S,20S)-1042 was quantified by using the HPLC method described above.

[2] = Solution stability in different alkaline solutions (HPLC impurities); type: physicochemical; design: C = Dimer impurity: unit not given beside the values
[3] = Storage stability of powder composition and capsules (HPLC impurities, assay); type: physicochemical; conditions: Table 13; E* (S-isomer)
Experimental: Samples are analyzed by HPLC using a Chiralcel OD-H 250×4.6 mm column with a 5 μm particle size, at a wavelength of 257 nm using a variable wavelength UV detector, and a mobile phase comprising buffer (0.01 M KH2PO4; pH 3.0±0.1): acetonitrile (68:32% v/v), flow rate 1 ml/minute.
For the determination of the R-isomer impurity in the compositions, conditions essentially similar to the ones described above are used. The mobile phase comprises buffer (pH 3.0±0.1): acetonitrile (76:24% v/v).
For impurities other than the R-isomer the HPLC analysis comprises a Waters HPLC system equipped with a variable wavelength UV detector using symmetry C18, 250 column with a 5 μm particle size, at a wavelength of 257 nm, column temperature of 40° C. The mobile phase comprises
The capsules of Example 9B were charged for stability for about 3 months at different temperature conditions such as 2-8° C., 25° C. and the samples were analyzed by an HPLC procedure described above.
The powder composition of Example 13 was filled in amber coloured glass vials and sealed. Both initial sample and samples exposed at 25° C./60% RH (relative humidity), 30° C./65% RH, 40° C./75% RH for period of 3 days were analyzed for impurities by using HPLC as per the process described above.
The capsules have been exposed at 25° C./60% RH, 30° C./65% RH and 40° C./75% RH for a period of 3 months and data has been tabulated in Table 13.
The capsules packed in HDPE containers were exposed to different stability conditions such as 40° C./75% RH, 30° C./65% RH, 25° C./60% RH, 2-8° C. for about 6-12 months.

physchem [4] = type: physicochemical
Experimental: Excess amounts of DRF-(5S,20S)-1042 were added to aqueous solutions of HPBCD with concentrations ranging from 0-40% w/v and the suspensions were shaken at 200 rpm and 25° C. in an incubator shaker, till no further DRF-(5S,20S)-1042 went into solution. The solutions were filtered through a 0.22 μm membrane filter and subjected to analysis by HPLC by a process described above. The results are described in Table 3 and in FIG. 1.

[5] = system: Human bone marrow mononuclear cells; test: Human bone marrow assay (CFU-GM colonies); type: cell-based; conditions: GI90 for human cell toxicity to GI50 for anticancer activity
Experimental: Methocult.TM. GF (Cat No: H4534, Poietics, Biowhittakar, USA) medium comprising Methycellulose in iscove's MDM, Fetal bovine serum, Bovine serum albumin, 2-Mercaptoethanol, L-Glutamine, rhStem cell factor, rhGM-CSF and rhIL-3 was used for the assay. Human bone marrow mononuclear cells (Cat No. 2M-125C, Poietics, Biowhittakar, USA) were mixed with Methocult GF and the cell density was adjusted to 3×10^5 cells/ml. From this preparation, 500 μL aliquots were made and […] of 20× drug solution or vehicle was added to each aliquot and mixed thoroughly. 100 μL of clonogenic medium was plated into each well and the plates were allowed to gel at 4° C. for 15 minutes. Plates were incubated at 37 degree C. in a fully humidified atmosphere of 5% CO2 in an incubator for 14 days. CFU-GM colonies were counted under an inverted microscope as aggregates of 50 cells or more. The percentage colony inhibition was calculated using the following formula: 100−[(number of colonies in drug treated wells/Number of colonies in control wells)×100].

[6] = Arginine neutralized, 24 hours RT
[7] = Meglumine neutralized, 24 hours RT

Structure (SMILES): CC[C@@]1(O)C(=O)OCc2c1cc1n(c2=O)[C@@H](OCCO)c2cc3ccccc3nc2-1 [DRF-(5S,20S)-1042, 5(S)-(2′-hydroxyethoxy)-20(S)-camptothecin]
- solubility at 24 h (physchem [1]; fessif): ~41 µg/mL (≈ 0.1 mM)
- solubility at 24 h (physchem [1]; pH 12.6, aqueous buffer): 4160 µg/mL (≈ 10.2 mM)
- solubility at 24 h (physchem [1]; pH 12.73, aqueous buffer): 6670 µg/mL (≈ 16.3 mM)
- A = DRF (5R,20S)-1042 ([2]; Arginine as is, 24 hours RT): 5.22
- B = Decarboxylated impurity ([2]; Arginine as is, 24 hours RT): 0.19
- C = Dimer impurity ([2]; Arginine as is, 24 hours RT): 0.95
- D = Total impurities excluding DRF (5R,20S)-1042 ([2]; Arginine as is, 24 hours RT): 3.23
- A = DRF (5R,20S)-1042 ([2]; Arginine as is, Initial): 3.45
- B = Decarboxylated impurity ([2]; Arginine as is, Initial): 0.06
- C = Dimer impurity ([2]; Arginine as is, Initial): 0.88
- D = Total impurities excluding DRF (5R,20S)-1042 ([2]; Arginine as is, Initial): 2.50
- A = DRF (5R,20S)-1042 [2, 6]: 3.26
- B = Decarboxylated impurity [2, 6]: 0.18
- C = Dimer impurity [2, 6]: 0.93
- D = Total impurities excluding DRF (5R,20S)-1042 [2, 6]: 3.11
- A = DRF (5R,20S)-1042 ([2]; Arginine neutralized, Initial): 3.38
- B = Decarboxylated impurity ([2]; Arginine neutralized, Initial): 0.04
- C = Dimer impurity ([2]; Arginine neutralized, Initial): 0.9
- D = Total impurities excluding DRF (5R,20S)-1042 ([2]; Arginine neutralized, Initial): 2.64
- A = DRF (5R,20S)-1042 ([2]; Meglumine as is, 24 hours RT): 2.30
- B = Decarboxylated impurity ([2]; Meglumine as is, 24 hours RT): 0.33
- C = Dimer impurity ([2]; Meglumine as is, 24 hours RT): 7.17*
- D = Total impurities excluding DRF (5R,20S)-1042 ([2]; Meglumine as is, 24 hours RT): 11.1
- A = DRF (5R,20S)-1042 ([2]; Meglumine as is, Initial): 2.77
- B = Decarboxylated impurity ([2]; Meglumine as is, Initial): 0.21
- C = Dimer impurity ([2]; Meglumine as is, Initial): 12.04
- D = Total impurities excluding DRF (5R,20S)-1042 ([2]; Meglumine as is, Initial): 21.15
- A = DRF (5R,20S)-1042 [2, 7]: 2.57
- B = Decarboxylated impurity [2, 7]: 0.33
- C = Dimer impurity [2, 7]: 1.47
- D = Total impurities excluding DRF (5R,20S)-1042 [2, 7]: 5.02
- A = DRF (5R,20S)-1042 ([2]; Meglumine neutralized, Initial): 1.05
- B = Decarboxylated impurity ([2]; Meglumine neutralized, Initial): 0.03
- C = Dimer impurity ([2]; Meglumine neutralized, Initial): 0.54
- D = Total impurities excluding DRF (5R,20S)-1042 ([2]; Meglumine neutralized, Initial): 1.49
- A = DRF (5R,20S)-1042 ([2]; NaOH as is, 24 hours RT): 101.79
- B = Decarboxylated impurity ([2]; NaOH as is, 24 hours RT): 0.02
- C = Dimer impurity ([2]; NaOH as is, 24 hours RT): 0.48
- D = Total impurities excluding DRF (5R,20S)-1042 ([2]; NaOH as is, 24 hours RT): 1.95
- A = DRF (5R,20S)-1042 ([2]; NaOH as is, Initial): 75.40
- B = Decarboxylated impurity ([2]; NaOH as is, Initial): 0.02
- C = Dimer impurity ([2]; NaOH as is, Initial): 0.35
- D = Total impurities excluding DRF (5R,20S)-1042 ([2]; NaOH as is, Initial): 1.81
- A = DRF (5R,20S)-1042 ([2]; NaOH neutralized, 24 hours RT): 56.26
- B = Decarboxylated impurity ([2]; NaOH neutralized, 24 hours RT): 0.02
- C = Dimer impurity ([2]; NaOH neutralized, 24 hours RT): 0.37
- D = Total impurities excluding DRF (5R,20S)-1042 ([2]; NaOH neutralized, 24 hours RT): 2.22
- A = DRF (5R,20S)-1042 ([2]; NaOH neutralized, Initial): 56.75
- B = Decarboxylated impurity ([2]; NaOH neutralized, Initial): 0.02
- C = Dimer impurity ([2]; NaOH neutralized, Initial): 0.38
- D = Total impurities excluding DRF (5R,20S)-1042 ([2]; NaOH neutralized, Initial): 1.81
- A = DRF (5R,20S)-1042 [3]: 1.11 % Peak Area
- B = Decarboxylated impurity [3]: 0.02 % Peak Area
- C = Dimer impurity [3]: 0.35 % Peak Area
- D = Total impurities excluding DRF (5R,20S)-1042 [3]: 0.96 % Peak Area
- increase in aqueous solubility and solubility in bio-relevant media vs uncomplexed state (physchem [4]): more than 50 fold
- increase in aqueous solubility when compared with water alone (physchem [4]): over 50 fold
- solubility (physchem [4]; 25 °C, water, thermodynamic from solid, Solubility): 20 µg/mL (≈ 0.049 mM)
- Safety Margin GI90/GI50 [5]: 0.14
